Tests used:
[1] = tested on: PCSK9; details: modified stable siRNA, clinical trials; cited from earlier work
[2] = tested on: Taz; experiment: siTaz treatment of AML12 hepatocytes (Ihh mRNA, immunoblot, ELISA); assay type: cell-based, mouse
Text: To explore the possibility that TAZ-induced Ihh is secreted by hepatocytes and activates HSCs, an in vitro model using AML12 cells, a non-cancerous mouse hepatocyte cell line was utilized (Dumenco et al., 1995), along with primary murine HSCs. Consistent with the in vivo data, siTaz treatment of AML12 hepatocytes lowered cellular Ihh mRNA in the cells and Ihh protein in both the cells and media (FIGS. 8A-C). In the next experiments, conditioned medium (CM) from control or Taz-silenced AML12 cells was utilized, as well as medium not exposed to cells (non-CM), to primary murine hepatic stellate cells (HSCs). […] Most importantly, CM from TAZ-silenced hepatocytes lowered the levels these mRNAs and protein compared to CM from shCon-treated hepatocytes (FIG. 8D). […] Finally, to make a more direct link between TAZ-induced Ihh in hepatocytes and activation of HSCs, Ihh was restored in siTaz-treated hepatocytes by Ihh transfection and then analyzed to determine whether this lessened the suppressive effect of CM from these cells on the expression of the fibrosis-related genes in HSCs. Transfection of TAZ-silenced hepatocytes with Ihh led to a level of Ihh in the CM that was similar to that in the CM of control hepatocytes (FIG. 8F—compare 1st and 4th bars). As before, the CM of TAZ-silenced hepatocytes suppressed Opn, Timp1 and Col1a1 mRNA in HSCs (FIG. 8G—compare 2nd and 4th bars), and the present results illustrate that restoration of Ihh in these TAZ-silenced cells rescued CM-induced HSC gene expression (FIG. 8G—compare 4th and 5th bars).
AML12 mouse hepatocytes were purchased from ATCC (CRL-2254) and cultured in DMEM/F12 medium (Lifetechnologies, #11320) with 10% FBS (Gibco, #16140-071). Hepatic stellate cells (HSCs) were isolated from 5-6 mo/o BALB/C mice as described previously (Mederacke et al., 2015). […] For quantification of Ihh, hepatocyte conditioned medium was concentrated 10-fold by centrifugal filters (Millipore, Ultracel) and analyzed by an ELISA kit (LifeSpan Biosciences, F7953). […]

[3] = tested on: primary murine hepatic stellate cells (HSCs); experiment: Conditioned medium transfer from silenced AML12 hepatocytes to primary hepatic stellate cells; assay type: cell-based, mouse; details: CM from TAZ-silenced vs control hepatocytes, 72 h
Text: To explore the possibility that TAZ-induced Ihh is secreted by hepatocytes and activates HSCs, an in vitro model using AML12 cells, a non-cancerous mouse hepatocyte cell line was utilized (Dumenco et al., 1995), along with primary murine HSCs. Consistent with the in vivo data, siTaz treatment of AML12 hepatocytes lowered cellular Ihh mRNA in the cells and Ihh protein in both the cells and media (FIGS. 8A-C). In the next experiments, conditioned medium (CM) from control or Taz-silenced AML12 cells was utilized, as well as medium not exposed to cells (non-CM), to primary murine hepatic stellate cells (HSCs). […] Finally, to make a more direct link between TAZ-induced Ihh in hepatocytes and activation of HSCs, Ihh was restored in siTaz-treated hepatocytes by Ihh transfection and then analyzed to determine whether this lessened the suppressive effect of CM from these cells on the expression of the fibrosis-related genes in HSCs. […]
AML12 mouse hepatocytes were purchased from ATCC (CRL-2254) and cultured in DMEM/F12 medium (Lifetechnologies, #11320) with 10% FBS (Gibco, #16140-071). […] For quantification of Ihh, hepatocyte conditioned medium was concentrated 10-fold by centrifugal filters (Millipore, Ultracel) and analyzed by an ELISA kit (LifeSpan Biosciences, F7953).

| Substance | toxicity profile [1] | cellular Ihh mRNA [2] | Ihh protein in the media ([2]; ELISA) | Ihh protein in the cells ([2]; immunoblot) | Opn, Timp1 and Col1a1 mRNAs and protein in HSCs [3] |
| --- | --- | --- | --- | --- | --- |
| Inclisiran | very low toxicity profiles |  |  |  |  |
| siTaz: siRNA against mouse Taz purchased from IDT; target sequence ACAUGGACGAGAUGGAUACAGGUGA (sense ACAUGGACGAGAUGGAUACAGGUGA; purchased from IDT, chemistry not given here; the letters are possibly those of the target site) |  | lowered | lowered | lowered | lowered |
